These results are taken from patent US20100324067A1, “TETRACYCLIC DIPYRANO-COUMARIN COMPOUNDS WITH ANTI-HIV AND ANTI-MYCOBACTERIUM TUBERCULOSIS ACTIVITIES” (priority 2007, published 2010).

The test system of one series is host cells of the virus. Nature of the series: Cell toxicity to the host cells of the virus at 10 μM. Format: cell-based.
The test system of series [1] is CEM-SS cells (human T-lymphoblastic cells). The note with it: cited from earlier work.
The subject of the next series is H37Rv strain. The note with it: H37Rv strain growth; Bioorg. Med. Chem., 2004, 1199-1207; cited from earlier work.
Series [2] concerns HIV-1. Nature of the series: Inhibitory activity against HIV-1 (literature method, Chen et al. J Virol 1997). The note with it: for inhibition at 1 µM: Human immunodeficiency virus 1, read-out: Anti-HIV (%, 1.0 μM). On the procedure:
Inhibitory activity of the coumarin derivatives of the present invention against HIV-1.
Inhibitory activity of the compounds against HIV-1 is assayed using the literature method. The experimental conditions, procedures, reagents and so on of the experiment are referred to the reference of “ZHIWEI CHEN, PEI ZHOU, DAVID D. HO, et al. Genetically divergent strains of simian immuno-deficiency virus use CCR5 as a coreceptor for entry. Journal of Virology, 1997, 71(4): 2705-2714”.

The test system of series [3] is HIV-1. The following applies: cited from earlier work.
Series [4] concerns Mycobacterium tuberculosis H37Rv (ATCC 27294). Nature of the series: Microplate Alamar Blue Assay (MABA) in BACTEC 12B medium (TAACF screen). Format: cell-based.
The mark [5] stands for this setting: read-out: anti-TB active compound (MIC90 less than 10 μg/mL), classification.

In brackets after ≈: the same amount, converted by molar mass. Where two headings read alike, the source gives them in different places.

Turning to `CCCc1cc(=O)oc2c3c(c4c(c12)OC(C)(C)C=C4)O[C@H](C)[C@@H](C)[C@@H]3O` [(+)-Calanolide A, (+)-calanolide A], the “Cell toxicity (10 μM), number printed before the class symbol” value in the series on host cells of the virus (10 μM) stood at 6%. Moreover, the CC50 in series [1] is 20 µM. For the same molecule, the MIC90 in the series with H37Rv strain was 3.13 µg/mL (≈ 8.45 µM). Besides, in the series with HIV-1 [2], the inhibition at 1 µM worked out at 86%. Besides, the “therapeutic index (TI)” value with HIV-1 [3] (J. MED. CHEM. 1996, 39, 1303) is reported as 16-279. Moreover, the EC50 is 100 nM in the series with HIV-1 [3] (anti-HIV-1, literature, read-out: EC50) and 100 to 200 nM in the series on HIV-1 [3] (from J. Med. Chem. 1996, 39(6):1303-13, unit inferred, read-out: EC50 (TI)). Besides, the “activity against TIBO of pyridinone-resistant A17 strains” value with HIV-1 [3] (resistant strain A17) is “active”. Also, the “activity against AZT-1-resistant strains (G-9106) of HIV-1” value in the series with HIV-1 [3] (resistant strain G-9106) is listed as “active”.
For the molecule `CCCc1cc(=O)oc2c3c(c4c(c12)OC(CCC)C=C4)OC(C)CC3=O` (stereo not shown) [Example 34, 10-methyl-4,6-di(-n-propyl)-2H,6H,12H-benzo[1,2-b:3,4-b′:5,6-b″]-tripyranyl-2,12-dione], the melting point lay within 158 to 160 °C. Besides, the “Cell toxicity (10 μM)” value in the series with host cells of the virus is on record as “−”. This molecule came in with an IC50 in series [4] of 2.88 µg/mL (≈ 7.8 µM). Also, in series [4] (MABA, H37Rv, read-out: MIC90), the MIC90 was found to be 3.18 µg/mL (≈ 8.64 µM). The MIC90 in series [4] (setting [5]) is below 10 µg/mL. The inhibition at 1 µM in the series with HIV-1 [2] came to 54.1%.
In turn, `CCCc1cc(=O)oc2c3c(c4c(c12)OC(C)(C)C=C4)OC1CC1C3=O` (stereo not drawn) [Example 70, 6,6,-dimethyl-4-propyl-10,11-cis-cyclopropyl-2H,6H,12H-benzo[1,2-b:3,4-b′:5,6-b″]tripyranyl-2,12-dione] yielded a melting point of 113 to 115 °C. Further, in the series on host cells of the virus, the “Cell toxicity (10 μM)” value is on record as “−”. In series [4], this molecule registered an IC50 of 3.31 µg/mL (≈ 9.38 µM). For the same molecule, the MIC90 in series [4] (MABA, H37Rv, read-out: MIC90) was determined as 5.54 µg/mL (≈ 15.7 µM). For the same molecule, the MIC90 in series [4] (setting [5]) was below 10 µg/mL. The molecule also registered an EC50 with HIV-1 [2] (Human immunodeficiency virus 1) of 14.1 nM. The inhibition at 1 µM with HIV-1 [2] is 68.6%. For the same molecule, in the series on HIV-1 [2] (in words), the “anti-HIV-1 activity in vitro compared to (+)-calanolide A” value was “much higher inhibitory activity” and the “therapeutic index, in words” value is “high therapeutic index”. In addition, the “Therapeutic index (TI) = 50% cytotoxicity doses/50% effective dose” value in the series with HIV-1 [2] (value in brackets after EC50) is on record as 709-2127.
Take `CC1CC(=O)c2c(c3c(c4c(CCC(F)(F)F)cc(=O)oc24)OC(c2ccccc2)C=C3)O1` (stereo not shown) [Example 74, 4-(3,3′, 3″-trifluoro-n-propyl)-6-phenyl-O-methyl-2H,6H, 2H-benzo[1,2-b:3,4-b′:5,6-b″]-tripyranyl-2,12-dione]: the melting point lay within 171 to 173 °C. Also, the “Cell toxicity (10 μM)” value in the series with host cells of the virus was “−”. In addition, the IC50 in series [4] was 5.7 µg/mL (≈ 12.5 µM). Besides, the MIC90 in series [4] (MABA, H37Rv, read-out: MIC90) is 6.38 µg/mL (≈ 14 µM). The MIC90 in series [4] (setting [5]) is below 10 µg/mL. The inhibition at 1 µM in the series with HIV-1 [2] was 47.6%.
In turn, `CCc1cc(=O)oc2c3c(c4c(c12)OC(C)C=C4)OC(C)CC3=O` (stereo not shown) [Example 79, 6,10-dimethyl-4-ethyl-2H,6H,12H-benzo[1,2-b:3,4-b′:5,6-b″]-tripyranyl-2,12-dione] had a melting point of 133 to 134 °C. Further, the “Cell toxicity (10 μM)” value in the series with host cells of the virus is recorded as “−”. In series [4], this molecule returned an IC50 of 6.07 µg/mL (≈ 18.6 µM). Besides, the MIC90 in series [4] (MABA, H37Rv, read-out: MIC90) turned out to be 6.84 µg/mL (≈ 21 µM). Further, the inhibition at 1 µM with HIV-1 [2] worked out at 57.4%.
Turning to `CCCCc1cc(=O)oc2c3c(c4c(c12)OC(C)C=C4)OC(C)CC3=O` (stereo not shown) [Example 82, 6,10-dimethyl-4-n-butyl-2H,6H,12H-benzo[1,2-b:3,4-b′:5,6-b″]-tripyranyl-2,12-dione], the melting point is 128 to 129 °C. Also, in the series with host cells of the virus, the “Cell toxicity (10 μM)” value is reported as “−”. For the same molecule, in series [4], the IC50 was 36.3 µg/mL (≈ 102 µM). Besides, the MIC90 in series [4] (MABA, H37Rv, read-out: MIC90) stood at 56.2 µg/mL (≈ 158 µM). The inhibition at 1 µM in the series on HIV-1 [2] came out at 75.4%.
The corresponding values for `CCc1c(F)c(=O)oc2c3c(c4c(c12)OC(C)C=C4)OC(C)CC3=O` (stereo not shown) [Example 83, 6,10-dimethyl-4-ethyl-3-fluoro-2H, H, 12H-benzo[1,2-b:3,4-b′: 5,6-b″]-tripyranyl-2,12-dione] are 141 to 142 °C, “−”, 24.4 µg/mL (≈ 70.9 µM), 27.7 µg/mL (≈ 80.4 µM) and 39.5%.
As for `C/C=C/C1C=Cc2c3c(c4oc(=O)cc(CC)c4c2O1)C(=O)CC(C)O3` (stereo not shown) [Example 87, 4-ethyl-6-propenyl-10-methyl-2H,6H,12H-benzo[1,2-b:3,4-b′:5,6-b″]-tripyranyl-2,12-d ione], the melting point lay within 153 to 155 °C. In the series on host cells of the virus, the “Cell toxicity (10 μM)” value was “−”. Also, in series [4], the IC50 amounted to 51.2 µg/mL (≈ 145 µM). In series [4] (MABA, H37Rv, read-out: MIC90), the MIC90 is above 100 µg/mL. In addition, the inhibition at 1 µM in the series with HIV-1 [2] was 56.4%.
Taken in the same sequence, the figures for `C/C=C/C1C=Cc2c3c(c4oc(=O)c(F)c(CC)c4c2O1)C(=O)CC(C)O3` (stereo not shown) [Example 88, 4-ethyl-6-propenyl-3-fluoro-10-methyl-2H,6H,12H-benzo[1,2-b:3,4-b′:5,6-b″]-tripyranyl-2,12-dione] were 158 to 161 °C, “−”, 70.7 µg/mL (≈ 191 µM), above 100 µg/mL and 46.2%.
Taken in the same sequence, the figures for `CCCc1c(Cl)c(=O)oc2c3c(c4c(c12)OCC(C)C4OCC)OC(C)CC3=O` (stereo not shown) [Example 96, 8-ethoxyl-7,10-dimethyl-4-n-propyl-3-chloro-7,8,10,11-tetrahydro-6H-benzo[2,3-f;2′,3′-h]-tripyranyl-2,12-dione] were 187 to 189 °C, “−”, 11.1 µg/mL (≈ 26.4 µM), 22.2 µg/mL (≈ 52.8 µM) and 51.7%.
